Source: article PMC8401933 (Molecules, 2021)

Legend:
Experiment in all cases: KINOMEscan binding
Settings in all cases: read-out: Percent Control
BIKE = target: T1, BIKE (Homo sapiens, UniProt Q9NSY1)
T1 construct: purchased Eurofins DiscoverX KINOMEscan

BLK = target: T2, BLK (Homo sapiens, UniProt P51451)
T2 construct: purchased Eurofins DiscoverX KINOMEscan

VPS34 = target: T3, VPS34 (Homo sapiens, UniProt Q8NEB9)
T3 construct: purchased Eurofins DiscoverX KINOMEscan

CLK1 = target: T4, CLK1 (Homo sapiens, UniProt P49759)
T4 construct: purchased Eurofins DiscoverX KINOMEscan

SLK = target: T5, SLK (Homo sapiens, UniProt Q9H2G2)
T5 construct: purchased Eurofins DiscoverX KINOMEscan

CSNK1E = target: T6, CSNK1E (Homo sapiens, UniProt P49674)
T6 construct: purchased Eurofins DiscoverX KINOMEscan

MARK4 = target: T7, MARK4 (Homo sapiens, UniProt Q96L34)
T7 construct: purchased Eurofins DiscoverX KINOMEscan

MKK7 = target: T8, MKK7 (Homo sapiens, UniProt O14733)
T8 construct: purchased Eurofins DiscoverX KINOMEscan

ABL1-nonphosphorylated = target: T9, ABL1-nonphosphorylated (Homo sapiens, UniProt P00519)
T9 construct: purchased Eurofins DiscoverX KINOMEscan

ROS1 = target: T10, ROS1 (Homo sapiens, UniProt P08922)
T10 construct: purchased Eurofins DiscoverX KINOMEscan

MAP3K15 = target: T11, MAP3K15 (Homo sapiens, UniProt Q6ZN16)
T11 construct: purchased Eurofins DiscoverX KINOMEscan

MAP3K4 = target: T12, MAP3K4 (Homo sapiens, UniProt Q9Y6R4)
T12 construct: purchased Eurofins DiscoverX KINOMEscan

MLK1 = target: T13, MLK1 (Homo sapiens, UniProt P80192)
T13 construct: purchased Eurofins DiscoverX KINOMEscan

NEK4 = target: T14, NEK4 (Homo sapiens, UniProt P51957)
T14 construct: purchased Eurofins DiscoverX KINOMEscan
T14 sequence (P51957 whole entry): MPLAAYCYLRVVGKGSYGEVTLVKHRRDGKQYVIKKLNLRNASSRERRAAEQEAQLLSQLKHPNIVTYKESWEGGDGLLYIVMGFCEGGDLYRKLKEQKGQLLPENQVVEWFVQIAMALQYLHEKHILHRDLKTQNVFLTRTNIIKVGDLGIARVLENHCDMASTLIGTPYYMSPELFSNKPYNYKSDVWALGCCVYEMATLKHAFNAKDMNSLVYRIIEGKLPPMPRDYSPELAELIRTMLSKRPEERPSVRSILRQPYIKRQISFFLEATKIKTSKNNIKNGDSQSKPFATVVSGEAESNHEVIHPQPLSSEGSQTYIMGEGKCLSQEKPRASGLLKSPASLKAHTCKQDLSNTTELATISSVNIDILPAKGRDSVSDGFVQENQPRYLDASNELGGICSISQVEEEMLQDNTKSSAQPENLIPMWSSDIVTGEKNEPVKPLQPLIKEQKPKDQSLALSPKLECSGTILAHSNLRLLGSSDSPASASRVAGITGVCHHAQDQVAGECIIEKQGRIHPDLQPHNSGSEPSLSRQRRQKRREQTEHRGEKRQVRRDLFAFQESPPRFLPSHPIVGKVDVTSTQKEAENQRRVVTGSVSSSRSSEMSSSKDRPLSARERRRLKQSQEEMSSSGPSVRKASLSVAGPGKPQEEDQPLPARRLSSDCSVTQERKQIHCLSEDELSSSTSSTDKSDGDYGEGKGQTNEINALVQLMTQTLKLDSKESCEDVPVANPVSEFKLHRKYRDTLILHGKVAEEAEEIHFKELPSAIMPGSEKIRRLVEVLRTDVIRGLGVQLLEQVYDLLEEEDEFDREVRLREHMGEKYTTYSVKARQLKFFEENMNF

MST4 = target: T15, MST4 (Homo sapiens, UniProt Q9P289)
T15 construct: purchased Eurofins DiscoverX KINOMEscan
T15 sequence (Q9P289 whole entry): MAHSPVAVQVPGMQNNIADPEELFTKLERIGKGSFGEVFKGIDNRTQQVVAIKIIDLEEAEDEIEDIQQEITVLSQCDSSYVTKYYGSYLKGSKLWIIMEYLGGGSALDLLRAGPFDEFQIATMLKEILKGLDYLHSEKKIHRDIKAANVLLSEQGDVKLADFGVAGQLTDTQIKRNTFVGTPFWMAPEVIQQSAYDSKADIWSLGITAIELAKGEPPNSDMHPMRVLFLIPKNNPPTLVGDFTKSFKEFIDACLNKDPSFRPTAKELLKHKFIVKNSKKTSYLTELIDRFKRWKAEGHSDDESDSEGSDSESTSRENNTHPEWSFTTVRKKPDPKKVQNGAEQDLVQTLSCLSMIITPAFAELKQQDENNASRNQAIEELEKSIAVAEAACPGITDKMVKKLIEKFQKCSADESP

PRKG2 = target: T16, PRKG2 (Homo sapiens, UniProt Q13237)
T16 construct: purchased Eurofins DiscoverX KINOMEscan

RET = target: T17, RET (Homo sapiens, UniProt P07949)
T17 construct: purchased Eurofins DiscoverX KINOMEscan

BMPR1A = target: T18, BMPR1A (Homo sapiens, UniProt P36894)
T18 construct: purchased Eurofins DiscoverX KINOMEscan
T18 sequence (P36894 24-532): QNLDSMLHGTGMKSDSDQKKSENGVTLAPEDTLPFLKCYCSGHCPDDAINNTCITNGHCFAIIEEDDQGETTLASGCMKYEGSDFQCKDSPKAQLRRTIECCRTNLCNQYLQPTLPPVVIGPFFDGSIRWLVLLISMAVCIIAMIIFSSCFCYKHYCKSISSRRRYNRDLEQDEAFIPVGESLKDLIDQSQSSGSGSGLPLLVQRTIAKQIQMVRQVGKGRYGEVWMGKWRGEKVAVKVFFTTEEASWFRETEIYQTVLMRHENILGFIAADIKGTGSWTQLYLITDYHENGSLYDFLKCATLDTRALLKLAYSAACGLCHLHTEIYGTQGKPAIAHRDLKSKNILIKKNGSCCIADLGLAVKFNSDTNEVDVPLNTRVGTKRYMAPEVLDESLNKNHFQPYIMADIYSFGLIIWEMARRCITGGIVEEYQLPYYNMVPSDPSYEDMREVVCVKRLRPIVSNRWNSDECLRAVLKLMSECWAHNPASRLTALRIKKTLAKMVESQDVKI

AKT2 = target: T19, AKT2 (Homo sapiens, UniProt P31751)
T19 construct: purchased Eurofins DiscoverX KINOMEscan
T19 sequence (P31751 whole entry): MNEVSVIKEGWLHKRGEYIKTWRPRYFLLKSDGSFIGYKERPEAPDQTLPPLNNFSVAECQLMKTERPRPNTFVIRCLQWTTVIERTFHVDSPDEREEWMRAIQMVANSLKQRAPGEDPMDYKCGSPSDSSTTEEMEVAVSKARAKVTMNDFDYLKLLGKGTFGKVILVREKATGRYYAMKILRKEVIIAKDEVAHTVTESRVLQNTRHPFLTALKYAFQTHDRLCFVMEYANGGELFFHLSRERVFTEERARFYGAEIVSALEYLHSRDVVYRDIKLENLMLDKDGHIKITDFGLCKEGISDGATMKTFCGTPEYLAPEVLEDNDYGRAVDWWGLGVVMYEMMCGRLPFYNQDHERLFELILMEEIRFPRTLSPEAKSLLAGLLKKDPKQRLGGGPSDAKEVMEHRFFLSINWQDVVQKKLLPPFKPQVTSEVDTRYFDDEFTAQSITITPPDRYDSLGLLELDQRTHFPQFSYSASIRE

NEK7 = target: T20, NEK7 (Homo sapiens, UniProt Q8TDX7)
T20 construct: purchased Eurofins DiscoverX KINOMEscan

PCTK1 = target: T21, PCTK1 (Homo sapiens, UniProt Q00536)
T21 construct: purchased Eurofins DiscoverX KINOMEscan

TYRO3 = target: T22, TYRO3 (Homo sapiens, UniProt Q06418)
T22 construct: purchased Eurofins DiscoverX KINOMEscan

PCTK2 = target: T23, PCTK2 (Homo sapiens, UniProt Q00537)
T23 construct: purchased Eurofins DiscoverX KINOMEscan

[1] = target: T24, RPS6KA4(Kin.Dom.1-N-terminal) (Homo sapiens, UniProt O75676)
T24 construct: RPS6KA4(Kin.Dom.1-N-terminal); purchased Eurofins DiscoverX KINOMEscan
T24 sequence (O75676 1-371 limits assumed): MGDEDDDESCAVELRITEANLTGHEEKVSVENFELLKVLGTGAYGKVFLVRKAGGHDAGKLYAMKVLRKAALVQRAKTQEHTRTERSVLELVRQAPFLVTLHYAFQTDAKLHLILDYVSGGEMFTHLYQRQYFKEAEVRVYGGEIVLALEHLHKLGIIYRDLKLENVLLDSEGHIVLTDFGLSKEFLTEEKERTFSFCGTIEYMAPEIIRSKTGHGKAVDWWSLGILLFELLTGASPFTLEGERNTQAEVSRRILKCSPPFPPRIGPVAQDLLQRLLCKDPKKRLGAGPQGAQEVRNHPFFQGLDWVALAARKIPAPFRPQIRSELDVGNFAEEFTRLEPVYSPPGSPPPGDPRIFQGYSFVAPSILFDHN

FGFR1 = target: T25, FGFR1 (Homo sapiens, UniProt P11362)
T25 construct: purchased Eurofins DiscoverX KINOMEscan

[2] = target: T26, ABL1(F317L)-nonphosphorylated (Homo sapiens, UniProt P00519, F317L)
T26 construct: purchased Eurofins DiscoverX KINOMEscan

CDK9 = target: T27, CDK9 (Homo sapiens, UniProt P50750)
T27 construct: purchased Eurofins DiscoverX KINOMEscan

TRKB = target: T28, TRKB (Homo sapiens, UniProt Q16620)
T28 construct: purchased Eurofins DiscoverX KINOMEscan

ACVR2A = target: T29, ACVR2A (Homo sapiens, UniProt P27037)
T29 construct: purchased Eurofins DiscoverX KINOMEscan
T29 sequence (P27037 20-513): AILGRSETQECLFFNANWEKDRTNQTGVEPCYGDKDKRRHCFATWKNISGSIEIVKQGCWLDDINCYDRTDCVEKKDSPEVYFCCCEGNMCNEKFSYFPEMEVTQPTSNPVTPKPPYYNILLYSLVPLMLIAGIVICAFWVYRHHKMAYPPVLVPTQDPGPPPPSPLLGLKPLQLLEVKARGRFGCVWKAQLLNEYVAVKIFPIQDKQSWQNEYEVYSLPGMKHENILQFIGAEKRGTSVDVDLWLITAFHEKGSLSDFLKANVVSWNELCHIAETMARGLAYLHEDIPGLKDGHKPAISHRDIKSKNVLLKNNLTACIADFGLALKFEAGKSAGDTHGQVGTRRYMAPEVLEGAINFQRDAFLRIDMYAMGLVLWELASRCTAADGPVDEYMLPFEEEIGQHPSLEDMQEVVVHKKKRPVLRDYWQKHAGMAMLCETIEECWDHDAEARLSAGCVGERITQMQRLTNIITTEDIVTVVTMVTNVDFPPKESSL

CSF1R = target: T30, CSF1R (Homo sapiens, UniProt P07333)
T30 construct: purchased Eurofins DiscoverX KINOMEscan
T30 sequence (P07333 20-972): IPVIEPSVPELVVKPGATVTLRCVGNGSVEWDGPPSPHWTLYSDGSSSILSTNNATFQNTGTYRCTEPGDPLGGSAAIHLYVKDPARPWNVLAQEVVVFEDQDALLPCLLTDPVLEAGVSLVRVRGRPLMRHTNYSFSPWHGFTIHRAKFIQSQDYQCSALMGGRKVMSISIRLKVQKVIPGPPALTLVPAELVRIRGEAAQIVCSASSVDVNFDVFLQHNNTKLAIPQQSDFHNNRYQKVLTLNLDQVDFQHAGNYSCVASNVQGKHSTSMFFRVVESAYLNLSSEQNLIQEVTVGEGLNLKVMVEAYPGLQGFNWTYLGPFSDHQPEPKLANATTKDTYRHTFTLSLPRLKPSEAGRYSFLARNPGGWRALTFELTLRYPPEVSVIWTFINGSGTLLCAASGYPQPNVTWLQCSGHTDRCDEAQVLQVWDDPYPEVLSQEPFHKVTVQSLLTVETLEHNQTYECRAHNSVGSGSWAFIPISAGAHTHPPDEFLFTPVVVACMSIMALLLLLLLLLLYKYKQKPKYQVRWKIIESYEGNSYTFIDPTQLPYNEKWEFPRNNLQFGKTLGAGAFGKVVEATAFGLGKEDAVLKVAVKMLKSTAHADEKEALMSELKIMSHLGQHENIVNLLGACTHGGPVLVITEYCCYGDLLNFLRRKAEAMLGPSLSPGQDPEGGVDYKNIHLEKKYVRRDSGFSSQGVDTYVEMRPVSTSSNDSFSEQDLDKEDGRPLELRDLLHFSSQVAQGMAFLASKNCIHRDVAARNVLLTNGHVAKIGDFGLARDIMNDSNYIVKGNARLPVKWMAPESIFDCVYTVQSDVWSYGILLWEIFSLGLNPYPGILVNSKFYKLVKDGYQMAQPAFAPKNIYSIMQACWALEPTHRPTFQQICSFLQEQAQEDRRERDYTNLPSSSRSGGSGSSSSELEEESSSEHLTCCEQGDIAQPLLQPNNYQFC

EPHB3 = target: T31, EPHB3 (Homo sapiens, UniProt P54753)
T31 construct: purchased Eurofins DiscoverX KINOMEscan

[3] = target: T32, JAK1(JH1domain-catalytic) (Homo sapiens, UniProt P23458)
T32 construct: JAK1(JH1domain-catalytic); purchased Eurofins DiscoverX KINOMEscan

CDKL2 = target: T33, CDKL2 (Homo sapiens, UniProt Q92772)
T33 construct: purchased Eurofins DiscoverX KINOMEscan

GCN2(Kin.Dom.2,S808G) = target: T34, GCN2(Kin.Dom.2,S808G) (Homo sapiens, UniProt Q9P2K8, S808G)
T34 construct: GCN2(Kin.Dom.2,S808G); purchased Eurofins DiscoverX KINOMEscan

HUNK = target: T35, HUNK (Homo sapiens, UniProt P57058)
T35 construct: purchased Eurofins DiscoverX KINOMEscan

LZK = target: T36, LZK (Homo sapiens, UniProt O43283)
T36 construct: purchased Eurofins DiscoverX KINOMEscan
T36 sequence (O43283 whole entry): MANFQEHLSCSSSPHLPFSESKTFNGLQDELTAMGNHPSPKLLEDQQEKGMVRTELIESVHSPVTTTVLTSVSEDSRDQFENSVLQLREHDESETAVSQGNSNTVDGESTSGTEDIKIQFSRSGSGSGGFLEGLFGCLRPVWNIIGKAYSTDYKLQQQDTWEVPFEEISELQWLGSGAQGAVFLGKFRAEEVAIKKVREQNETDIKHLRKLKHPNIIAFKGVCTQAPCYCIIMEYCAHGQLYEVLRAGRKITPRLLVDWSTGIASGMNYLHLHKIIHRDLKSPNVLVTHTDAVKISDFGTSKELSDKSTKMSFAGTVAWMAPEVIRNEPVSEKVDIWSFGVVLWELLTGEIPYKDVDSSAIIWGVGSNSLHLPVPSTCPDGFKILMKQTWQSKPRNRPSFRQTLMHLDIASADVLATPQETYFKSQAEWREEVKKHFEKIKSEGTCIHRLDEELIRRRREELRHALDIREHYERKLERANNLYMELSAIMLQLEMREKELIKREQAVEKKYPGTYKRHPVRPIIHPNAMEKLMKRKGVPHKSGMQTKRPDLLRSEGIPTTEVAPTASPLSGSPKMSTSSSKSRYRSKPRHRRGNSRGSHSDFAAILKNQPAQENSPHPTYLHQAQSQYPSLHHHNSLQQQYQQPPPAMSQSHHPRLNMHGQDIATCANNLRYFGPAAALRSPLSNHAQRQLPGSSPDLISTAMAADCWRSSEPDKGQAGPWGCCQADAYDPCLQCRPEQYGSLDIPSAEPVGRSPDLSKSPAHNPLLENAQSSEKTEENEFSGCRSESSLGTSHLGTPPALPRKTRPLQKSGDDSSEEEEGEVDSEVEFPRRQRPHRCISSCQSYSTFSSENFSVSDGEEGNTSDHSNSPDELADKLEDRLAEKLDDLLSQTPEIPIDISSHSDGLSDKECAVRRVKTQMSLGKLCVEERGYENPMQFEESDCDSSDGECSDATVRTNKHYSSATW

NIM1 = target: T37, NIM1 (Homo sapiens, UniProt Q8IY84)
T37 construct: purchased Eurofins DiscoverX KINOMEscan

PHKG2 = target: T38, PHKG2 (Homo sapiens, UniProt P15735)
T38 construct: purchased Eurofins DiscoverX KINOMEscan

PLK1 = target: T39, PLK1 (Homo sapiens, UniProt P53350)
T39 construct: purchased Eurofins DiscoverX KINOMEscan

[4] = target: T40, RPS6KA5(Kin.Dom.1-N-terminal) (Homo sapiens, UniProt O75582)
T40 construct: RPS6KA5(Kin.Dom.1-N-terminal); purchased Eurofins DiscoverX KINOMEscan

STK39 = target: T41, STK39 (Homo sapiens, UniProt Q9UEW8)
T41 construct: purchased Eurofins DiscoverX KINOMEscan

WNK4 = target: T42, WNK4 (Homo sapiens, UniProt Q96J92)
T42 construct: purchased Eurofins DiscoverX KINOMEscan

SMILES: CC(C)NC(=O)COc1cccc(-c2nc(Nc3ccc4[nH]ncc4c3)c3ccccc3n2)c1 [KD025, 2-(3-(4-((1H-indazol-5-yl)amino)quinazolin-2-yl)phenoxy)-N-isopropylacetamide]
- remaining binding at 10 µM (BIKE): 3.9%
- remaining binding at 10 µM (BLK): 11%
- remaining binding at 10 µM (VPS34): 27%
- remaining binding at 10 µM (CLK1): 57%
- remaining binding at 10 µM (SLK): 59%
- remaining binding at 10 µM (CSNK1E): 61%
- remaining binding at 10 µM (MARK4): 66%
- remaining binding at 10 µM (MKK7): 73%
- remaining binding at 10 µM (ABL1-nonphosphorylated): 78%
- remaining binding at 10 µM (ROS1): 79%
- remaining binding at 10 µM (MAP3K15): 82%
- remaining binding at 10 µM (MAP3K4): 83%
- remaining binding at 10 µM (MLK1): 87%
- remaining binding at 10 µM (NEK4): 87%
- remaining binding at 10 µM (MST4): 88%
- remaining binding at 10 µM (PRKG2): 88%
- remaining binding at 10 µM (RET): 88%
- remaining binding at 10 µM (BMPR1A): 89%
- remaining binding at 10 µM (AKT2): 90%
- remaining binding at 10 µM (NEK7): 91%
- remaining binding at 10 µM (PCTK1): 91%
- remaining binding at 10 µM (TYRO3): 91%
- remaining binding at 10 µM (PCTK2): 94%
- remaining binding at 10 µM [1]: 94%
- remaining binding at 10 µM (FGFR1): 95%
- remaining binding at 10 µM [2]: 96%
- remaining binding at 10 µM (CDK9): 96%
- remaining binding at 10 µM (TRKB): 98%
- remaining binding at 10 µM (ACVR2A): 99%
- remaining binding at 10 µM (CSF1R): 99%
- remaining binding at 10 µM (EPHB3): 99%
- remaining binding at 10 µM [3]: 99%
- remaining binding at 10 µM (CDKL2): 100%
- remaining binding at 10 µM (GCN2(Kin.Dom.2,S808G)): 100%
- remaining binding at 10 µM (HUNK): 100%
- remaining binding at 10 µM (LZK): 100%
- remaining binding at 10 µM (NIM1): 100%
- remaining binding at 10 µM (PHKG2): 100%
- remaining binding at 10 µM (PLK1): 100%
- remaining binding at 10 µM [4]: 100%
- remaining binding at 10 µM (STK39): 100%
- remaining binding at 10 µM (WNK4): 100%
